Measurements from patent US3983103A, “N-(Benzenesulfonyl)-erythromycylamine derivatives” (PLIVA Pharmaceutical and Chemical Works, priority 1973, dated 1976).
Values after ≈ are worked out from the molar mass of the structure shown.

Columns and labels:
Format in all cases: cell-based
E. coli = test: antibacterial spectrum in vitro (Table I), MIC
[1] = tested on: Staphylococcus pyog. aureus; test: antibacterial spectrum in vitro (Table I), MIC
From the text: (§1) The above Table I illustrates antibacterial spectrum in vitro, using some pathogene microorganisms freshly isolated from patients.

Pseudomonas aeruginosa = test: antibacterial spectrum in vitro (Table I), MIC
From the text: as §1

Diplococcus pneumoniae = test: antibacterial spectrum in vitro (Table I), MIC
From the text: as §1

Proteus mirabilis = test: antibacterial spectrum in vitro (Table I), MIC
Enterococcus = test: antibacterial spectrum in vitro (Table I), MIC
From the text: as §1

Klebsiella aerogenes = test: antibacterial spectrum in vitro (Table I), MIC
From the text: as §1

[2] = tested on: Streptococcus haemolyticus; test: antibacterial spectrum in vitro (Table I), MIC
From the text: as §1

[3] = tested on: Streptococcus haemolyticus 69; test: testing against a set of organisms (Table II), MIC; settings: Streptococcus haemolyticus 69, Table II
Enterococcus 146 = test: testing against a set of organisms (Table II), MIC; settings: Enterococcus 146, Table II
Enterococcus 242 = test: testing against a set of organisms (Table II), MIC; settings: Enterococcus 242, Table II
[4] = tested on: Streptococcus haemolyticus 099; test: testing against a set of organisms (Table II), MIC; settings: Streptococcus haemolyticus 099, Table II
[5] = tested on: Staphylococcus aureus 372; test: testing against a set of organisms (Table II), MIC; settings: Staphylococcus aureus 372, Table II
Enterococcus 45 = test: testing against a set of organisms (Table II), MIC; settings: Enterococcus 45, Table II
Enterococcus 325 = test: testing against a set of organisms (Table II), MIC; settings: Enterococcus 325, Table II
[6] = tested on: Staphylococcus aureus 736; test: testing against a set of organisms (Table II), MIC; settings: Staphylococcus aureus 736, Table II

MIC (Enterococcus 146) [µg/mL] | MIC (Enterococcus 242) [µg/mL] | MIC [5] [µg/mL] | MIC (Enterococcus 45) [µg/mL] | MIC (Enterococcus 325) [µg/mL] | MIC [6] [µg/mL] | SMILES | MIC (E. coli) [µg/mL] | MIC [1] [µg/mL] | MIC (Pseudomonas aeruginosa) [µg/mL] | MIC (Diplococcus pneumoniae) [µg/mL] | MIC (Proteus mirabilis) [µg/mL] | MIC (Enterococcus) [µg/mL] | MIC (Klebsiella aerogenes) [µg/mL] | MIC [2] [µg/mL] | MIC [3] [µg/mL] | MIC [4] [µg/mL]
 |  |  |  |  |  | CC[C@H]1OC(=O)[C@H](C)[C@@H](O[C@H]2C[C@@](C)(OC)[C@@H](O)[C@H](C)O2)[C@H](C)[C@@H](O[C@@H]2O[C@H](C)C[C@H](N(C)C)[C@H]2O)[C@](C)(O)C[C@@H](C)C(=O)[C@H](C)[C@@H](O)[C@]1(C)O [E, erythromycin, reference compound] | 250 (≈ 341 µM) | 62.5 (≈ 85.2 µM) | 500 (≈ 681 µM) | 62.5 (≈ 85.2 µM) | 500 (≈ 681 µM) | 31.2 (≈ 42.5 µM) | 500 (≈ 681 µM) | 31.2 (≈ 42.5 µM) |  | 
7.8 (≈ 8.64 µM) | 3.9 (≈ 4.32 µM) | 7.8 (≈ 8.64 µM) | 7.8 (≈ 8.64 µM) | 3.9 (≈ 4.32 µM) | 31.2 (≈ 34.5 µM) | CCc1ccc(S(=O)(=O)NC2C(C)CC(C)(O)C(OC3OC(C)CC(N(C)C)C3O)C(C)C(OC3CC(C)(OC)C(O)C(C)O3)C(C)C(=O)OC(CC)C(C)(O)C(O)C2C)cc1 (stereo not drawn) [EAE, N-(4-ethyl-benzenesulfonyl)erythromycylamine] |  |  |  |  |  |  |  |  | 0.9 (≈ 0.996 µM) | 0.9 (≈ 0.996 µM)
7.8 (≈ 8.73 µM) | 3.9 (≈ 4.37 µM) | 15.6 (≈ 17.5 µM) | 7.8 (≈ 8.73 µM) | 7.8 (≈ 8.73 µM) | 31.2 (≈ 34.9 µM) | CCC1OC(=O)C(C)C(OC2CC(C)(OC)C(O)C(C)O2)C(C)C(OC2OC(C)CC(N(C)C)C2O)C(C)(O)CC(C)C(NS(=O)(=O)c2ccc(F)cc2)C(C)C(O)C1(C)O (stereo not drawn) [EAF, N-(4-fluoro-benzenesulfonyl)erythromycylamine] |  |  |  |  |  |  |  |  | 3.9 (≈ 4.37 µM) | < 0.9
3.9 (≈ 3.9 µM) | 7.8 (≈ 7.79 µM) | 3.9 (≈ 3.9 µM) | 7.8 (≈ 7.79 µM) | 3.9 (≈ 3.9 µM) | 15.6 (≈ 15.6 µM) | CCC1OC(=O)C(C)C(OC2CC(C)(OC)C(O)C(C)O2)C(C)C(OC2OC(C)CC(N(C)C)C2O)C(C)(O)CC(C)C(NS(=O)(=O)c2ccc(I)cc2)C(C)C(O)C1(C)O (stereo not drawn) [EAI, N-(4-iodo-benzenesulfonyl)erythromycylamine] |  |  |  |  |  |  |  |  | 0.9 (≈ 0.899 µM) | 0.9 (≈ 0.899 µM)
7.8 (≈ 8.24 µM) | 31.2 (≈ 33 µM) | 15.6 (≈ 16.5 µM) | 62.5 (≈ 66.1 µM) | 62.5 (≈ 66.1 µM) | 15.6 (≈ 16.5 µM) | CCC(=O)Nc1ccc(S(=O)(=O)NC2C(C)CC(C)(O)C(OC3OC(C)CC(N(C)C)C3O)C(C)C(OC3CC(C)(OC)C(O)C(C)O3)C(C)C(=O)OC(CC)C(C)(O)C(O)C2C)cc1 (stereo not drawn) [EAPr, N-(4-propionylamino-benzenesulfonyl)erythromycylamine] |  |  |  |  |  |  |  |  | 0.9 (≈ 0.951 µM) | 0.9 (≈ 0.951 µM)
15.6 (≈ 17.5 µM) | 3.9 (≈ 4.39 µM) | 15.6 (≈ 17.5 µM) | 7.8 (≈ 8.77 µM) | 7.8 (≈ 8.77 µM) | 31.2 (≈ 35.1 µM) | CCC1OC(=O)C(C)C(OC2CC(C)(OC)C(O)C(C)O2)C(C)C(OC2OC(C)CC(N(C)C)C2O)C(C)(O)CC(C)C(NS(=O)(=O)c2ccccc2C)C(C)C(O)C1(C)O (stereo not drawn) [o-EAT, N-(2-methyl-benzenesulfonyl)erythromycylamine] |  |  |  |  |  |  |  |  | 0.9 (≈ 1.01 µM) | 1.9 (≈ 2.14 µM)

SMILES | MIC (Enterococcus 146) [µg/mL] | MIC (Enterococcus 242) [µg/mL] | MIC [5] [µg/mL] | MIC (Enterococcus 45) [µg/mL] | MIC (Enterococcus 325) [µg/mL] | MIC [6] [µg/mL] | MIC (E. coli) [µg/mL] | MIC [1] [µg/mL] | MIC (Pseudomonas aeruginosa) [µg/mL] | MIC (Diplococcus pneumoniae) [µg/mL] | MIC (Proteus mirabilis) [µg/mL] | MIC (Enterococcus) [µg/mL] | MIC (Klebsiella aerogenes) [µg/mL] | MIC [2] [µg/mL] | MIC [3] [µg/mL] | MIC [4] [µg/mL]
CCC1OC(=O)C(C)C(OC2CC(C)(OC)C(O)C(C)O2)C(C)C(OC2OC(C)CC(N(C)C)C2O)C(C)(O)CC(C)C(NS(=O)(=O)c2ccc(NC(C)=O)cc2)C(C)C(O)C1(C)O (stereo not drawn) [EAAc, N-(4-acetylamino-benzenesulfonyl)erythromycylamine] | 31.2 (≈ 33.5 µM) | 62.5 (≈ 67 µM) | 15.6 (≈ 16.7 µM) | 125.0 (≈ 134 µM) | 62.5 (≈ 67 µM) | 31.2 (≈ 33.5 µM) |  | 15.6 (≈ 16.7 µM) | 250.0 (≈ 268 µM) | 1.9 (≈ 2.04 µM) | 125 (≈ 134 µM) | 1.9 (≈ 2.04 µM) | 62.5 (≈ 67 µM) | 0.45 (≈ 0.483 µM) | 0.9 (≈ 0.965 µM) | 1.9 (≈ 2.04 µM)
CCC1OC(=O)C(C)C(OC2CC(C)(OC)C(O)C(C)O2)C(C)C(OC2OC(C)CC(N(C)C)C2O)C(C)(O)CC(C)C(NS(=O)(=O)c2ccc(Br)cc2)C(C)C(O)C1(C)O (stereo not drawn) [EABr, N-(4-bromo-benzenesulfonyl)erythromycylamine] | 3.9 (≈ 4.09 µM) | 3.9 (≈ 4.09 µM) | 3.9 (≈ 4.09 µM) | 7.8 (≈ 8.18 µM) | 3.9 (≈ 4.09 µM) | 7.8 (≈ 8.18 µM) | 125.0 (≈ 131 µM) | 31.2 (≈ 32.7 µM) | 250.0 (≈ 262 µM) | 3.9 (≈ 4.09 µM) | 250 (≈ 262 µM) | 1.9 (≈ 1.99 µM) | 62.5 (≈ 65.5 µM) | 0.9 (≈ 0.943 µM) | 0.9 (≈ 0.943 µM) | 0.9 (≈ 0.943 µM)
CCC1OC(=O)C(C)C(OC2CC(C)(OC)C(O)C(C)O2)C(C)C(OC2OC(C)CC(N(C)C)C2O)C(C)(O)CC(C)C(NS(=O)(=O)c2ccc(Cl)cc2)C(C)C(O)C1(C)O (stereo not drawn) [EACl, N-(4-chloro-benzenesulfonyl)erythromycylamine] | 7.8 (≈ 8.58 µM) | 3.9 (≈ 4.29 µM) | 3.9 (≈ 4.29 µM) | 3.9 (≈ 4.29 µM) | 7.8 (≈ 8.58 µM) | 31.2 (≈ 34.3 µM) | 62.5 (≈ 68.7 µM) | 31.2 (≈ 34.3 µM) | 250.0 (≈ 275 µM) | 1.9 (≈ 2.09 µM) | 250 (≈ 275 µM) | 3.9 (≈ 4.29 µM) | 125 (≈ 137 µM) | 0.9 (≈ 0.989 µM) | 0.9 (≈ 0.989 µM) | 0.9 (≈ 0.989 µM)
CCC1OC(=O)C(C)C(OC2CC(C)(OC)C(O)C(C)O2)C(C)C(OC2OC(C)CC(N(C)C)C2O)C(C)(O)CC(C)C(NS(=O)(=O)c2ccc(C)cc2)C(C)C(O)C1(C)O (stereo not drawn) [EAT, N-(4-methyl-benzenesulfonyl)erythromycylamine] | 7.8 (≈ 8.77 µM) | 3.9 (≈ 4.39 µM) | 7.8 (≈ 8.77 µM) | 7.8 (≈ 8.77 µM) | 7.8 (≈ 8.77 µM) | 15.6 (≈ 17.5 µM) | 62.2 (≈ 70 µM) | 31.2 (≈ 35.1 µM) | 250.0 (≈ 281 µM) | 1.9 (≈ 2.14 µM) | 250 (≈ 281 µM) | 3.9 (≈ 4.39 µM) | 250 (≈ 281 µM) | 0.9 (≈ 1.01 µM) | 0.9 (≈ 1.01 µM) | 0.9 (≈ 1.01 µM)
